Laboratory results as given in BindingDB's records for doi:10.7270/Q2CZ35ZF (Southern Research Institute, 2016).

Molecular target: Cystic fibrosis transmembrane conductance regulator (Homo sapiens, UniProt P13569)
Sequence (P13569 whole entry): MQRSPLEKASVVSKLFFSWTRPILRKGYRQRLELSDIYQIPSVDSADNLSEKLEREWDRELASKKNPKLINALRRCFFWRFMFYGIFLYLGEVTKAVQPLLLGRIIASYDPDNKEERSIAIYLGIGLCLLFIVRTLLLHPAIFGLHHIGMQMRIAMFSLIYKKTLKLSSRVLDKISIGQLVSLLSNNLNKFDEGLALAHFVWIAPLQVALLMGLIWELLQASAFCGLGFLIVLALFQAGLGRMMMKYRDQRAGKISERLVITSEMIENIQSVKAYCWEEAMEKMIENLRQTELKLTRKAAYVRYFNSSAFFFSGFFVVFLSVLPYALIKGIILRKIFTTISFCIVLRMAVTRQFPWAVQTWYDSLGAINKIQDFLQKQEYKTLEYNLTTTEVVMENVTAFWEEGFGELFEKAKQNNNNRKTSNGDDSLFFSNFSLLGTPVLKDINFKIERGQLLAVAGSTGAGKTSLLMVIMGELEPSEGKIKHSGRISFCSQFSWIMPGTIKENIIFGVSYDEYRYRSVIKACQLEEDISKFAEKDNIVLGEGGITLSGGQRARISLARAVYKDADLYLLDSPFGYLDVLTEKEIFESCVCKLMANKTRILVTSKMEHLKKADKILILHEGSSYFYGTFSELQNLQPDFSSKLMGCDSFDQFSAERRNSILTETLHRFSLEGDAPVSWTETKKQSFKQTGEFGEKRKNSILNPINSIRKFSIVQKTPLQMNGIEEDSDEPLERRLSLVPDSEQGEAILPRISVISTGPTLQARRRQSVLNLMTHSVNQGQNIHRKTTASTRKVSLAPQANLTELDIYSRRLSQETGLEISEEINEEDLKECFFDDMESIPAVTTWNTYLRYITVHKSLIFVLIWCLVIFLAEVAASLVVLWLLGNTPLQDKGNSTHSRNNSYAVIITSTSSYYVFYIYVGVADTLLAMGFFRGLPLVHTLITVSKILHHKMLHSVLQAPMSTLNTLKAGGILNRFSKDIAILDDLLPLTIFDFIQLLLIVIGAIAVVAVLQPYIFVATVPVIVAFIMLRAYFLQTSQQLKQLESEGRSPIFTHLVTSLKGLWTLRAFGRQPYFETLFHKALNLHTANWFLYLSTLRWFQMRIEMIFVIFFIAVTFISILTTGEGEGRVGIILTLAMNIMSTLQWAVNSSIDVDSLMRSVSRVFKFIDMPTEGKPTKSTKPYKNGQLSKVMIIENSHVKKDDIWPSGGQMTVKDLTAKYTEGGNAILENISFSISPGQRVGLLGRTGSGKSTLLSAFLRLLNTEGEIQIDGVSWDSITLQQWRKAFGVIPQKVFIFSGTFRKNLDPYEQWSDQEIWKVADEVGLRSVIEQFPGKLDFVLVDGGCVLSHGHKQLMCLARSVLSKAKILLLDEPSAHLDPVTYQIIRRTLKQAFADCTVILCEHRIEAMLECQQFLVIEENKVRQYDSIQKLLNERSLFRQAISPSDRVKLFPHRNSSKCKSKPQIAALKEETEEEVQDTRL

Row | Compound | EC50 [µM] | IC50 [µM]
1 | CC(C)C[C@H](NC(=O)[C@H](Cc1ccccc1)NC(=O)c1cnccn1)B(O)O | > 50 | –
2 | Nc1ccc2cc3ccc(N)cc3nc2c1 [acridine-3,6-diamine] | > 50 | 8.88
3 | O=C(O)c1ccccc1-c1c2cc(Br)c(=O)cc-2oc2[c]([Hg])c(O)c(Br)cc12 [AB00053570_02] | > 50 | > 50
4 | C[n+]1c2cc(N)ccc2cc2ccc(N)cc21 [AB00053810_11] | > 50 | 5.71
5 | CC(C)C[C@@H](NC(=O)[C@H](Cc1ccccc1)NC(=O)c1cnccn1)B(O)O [AB01275474-01] | > 50 | 1.29
6 | O=C(O)/C=C/c1ccc(Cn2ccnc2)cc1 | > 50 | 3.43
7 | O=C(CCCCCCC(=O)Nc1ccccc1)NO [Zolinza] | > 50 | 1.55
8 | CN(C/C=C/C#CC(C)(C)C)Cc1cccc2ccccc12 [(6,6-Dimethyl-hept-2-en-4-ynyl)-methyl-naphthalen-1-ylmethyl-amine(Terbinafine)] | > 50 | > 25
9 | CN1[C@@H]2CC[C@H]1CC(OC(=O)C(CO)c1ccccc1)C2 (some centres undefined) [AB00694549-11] | > 50 | 21.4

The remaining lines, values ahead:

Row | EC50 [µM] | IC50 [µM] | Compound
10 | > 67 | 21 | COc1cc(/C=C(/C#N)c2nc(C)cs2)cc2c1OCO2 [AB00984802-01]
11 | > 50 | – | CO[C@H]1/C=C/O[C@@]2(C)Oc3c(C)c(O)c4c(c3C2=O)C(=O)/C(=C/NN2CCN(C)CC2)C(=C4O)NC(=O)/C(C)=C\C=C\[C@H](C)[C@H](O)[C@@H](C)[C@@H](O)[C@@H](C)[C@H](OC(C)=O)[C@@H]1C [Rifampicin]
12 | > 67 | > 67 | N#Cc1ccc(CN2CCc3cc([N+](=O)[O-])ccc32)c(F)c1 [AB01004372-01]
13 | > 50 | – | CO[C@H]1/C=C/O[C@@]2(C)Oc3c(C)c(O)c4c(c3C2=O)C(=O)/C(=C/NN2CCN(C)CC2)C(=C4O)NC(=O)/C(C)=C\C=C\C(C)[C@H](O)[C@@H](C)[C@@H](O)[C@@H](C)[C@@H](OC(C)=O)[C@@H]1C (some centres undefined) [AB00052086_02]
14 | > 50 | 0.14 | CCCc1nc(C)c2c(=O)[nH]c(-c3cc(S(=O)(=O)N4CCN(CC)CC4)ccc3OCC)nn12 [CHEBI:46295]
15 | > 49 | > 49 | O=S(=O)(Nc1ccc(-c2cn3cccnc3n2)cc1)c1ccc2c(c1)OCCO2 [AB01003479-01]
16 | > 50 | 30.2 | CCN(CC)CCOc1ccc2c(c1)C(=O)c1cc(OCCN(CC)CC)ccc1-2 [Amixin IC]
